In publication PMC5761851, “Application of a phenotypic drug discovery strategy to identify biological and chemical starting points for inhibition of TSLP production in lung epithelial cells” (PLoS ONE, 2018):

Columns and labels:
Assay in all cases: kinase selectivity panel
Assay type in all cases: biochemical
CDK1/cyclinB = target: T1, CDK1/cyclinB (Homo sapiens, UniProt P06493); conditions: read-out: percentage of control activity (POC), CDK1/cyclinB
T1 construct: purchased Eurofins Pharma Discovery Services (KinaseProfiler; Cerep BioPrint panel)
T1 sequence (P06493 whole entry): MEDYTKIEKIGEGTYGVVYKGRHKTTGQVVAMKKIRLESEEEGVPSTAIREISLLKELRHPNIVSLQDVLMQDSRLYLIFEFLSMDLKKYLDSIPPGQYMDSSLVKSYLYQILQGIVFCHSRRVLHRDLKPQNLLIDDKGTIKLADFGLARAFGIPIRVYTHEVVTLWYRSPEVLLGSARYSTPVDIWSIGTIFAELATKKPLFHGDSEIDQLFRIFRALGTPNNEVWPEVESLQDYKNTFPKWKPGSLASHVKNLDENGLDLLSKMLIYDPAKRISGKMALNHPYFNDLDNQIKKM
T1 sequence (P14635 whole entry partner): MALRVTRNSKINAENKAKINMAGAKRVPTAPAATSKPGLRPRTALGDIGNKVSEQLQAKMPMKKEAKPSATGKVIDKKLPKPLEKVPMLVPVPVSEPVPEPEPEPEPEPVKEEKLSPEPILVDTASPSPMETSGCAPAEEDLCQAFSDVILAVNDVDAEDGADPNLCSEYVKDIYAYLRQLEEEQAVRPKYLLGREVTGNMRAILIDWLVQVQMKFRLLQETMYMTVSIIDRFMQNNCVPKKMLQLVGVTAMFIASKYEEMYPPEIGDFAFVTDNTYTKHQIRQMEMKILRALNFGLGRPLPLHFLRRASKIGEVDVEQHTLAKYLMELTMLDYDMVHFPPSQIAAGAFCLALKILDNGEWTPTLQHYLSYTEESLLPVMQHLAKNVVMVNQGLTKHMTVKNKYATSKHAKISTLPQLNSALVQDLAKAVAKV
Method in brief: (§1)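 The compound is screened at 10 μM in duplicate against 125 representative kinases. Selected activities are followed up with a nine-concentration duplicate titration to give IC50.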

CSK = target: T2, CSK (Homo sapiens, UniProt P41240); conditions: read-out: percentage of control activity (POC), CSK
T2 construct: purchased Eurofins Pharma Discovery Services (KinaseProfiler; Cerep BioPrint panel)
Method in brief: as §1

Fer = target: T3, Fer (Homo sapiens, UniProt P16591); conditions: read-out: percentage of control activity (POC), Fer
T3 construct: purchased Eurofins Pharma Discovery Services (KinaseProfiler; Cerep BioPrint panel)
Method in brief: as §1

Flt1 = target: T4, Flt1 (Homo sapiens, UniProt P17948); conditions: read-out: percentage of control activity (POC), Flt1
T4 construct: purchased Eurofins Pharma Discovery Services (KinaseProfiler; Cerep BioPrint panel)
Method in brief: as §1

GSK3α = target: T5, GSK3α (Homo sapiens, UniProt P49840); conditions: read-out: percentage of control activity (POC), GSK3α
T5 construct: purchased Eurofins Pharma Discovery Services (KinaseProfiler; Cerep BioPrint panel)
Method in brief: as §1

IKKε = target: T6, IKKε (Homo sapiens, UniProt Q14164); conditions: read-out: percentage of control activity (POC), IKKε
T6 construct: purchased Eurofins Pharma Discovery Services (KinaseProfiler; Cerep BioPrint panel)
T6 sequence (Q14164 1-716): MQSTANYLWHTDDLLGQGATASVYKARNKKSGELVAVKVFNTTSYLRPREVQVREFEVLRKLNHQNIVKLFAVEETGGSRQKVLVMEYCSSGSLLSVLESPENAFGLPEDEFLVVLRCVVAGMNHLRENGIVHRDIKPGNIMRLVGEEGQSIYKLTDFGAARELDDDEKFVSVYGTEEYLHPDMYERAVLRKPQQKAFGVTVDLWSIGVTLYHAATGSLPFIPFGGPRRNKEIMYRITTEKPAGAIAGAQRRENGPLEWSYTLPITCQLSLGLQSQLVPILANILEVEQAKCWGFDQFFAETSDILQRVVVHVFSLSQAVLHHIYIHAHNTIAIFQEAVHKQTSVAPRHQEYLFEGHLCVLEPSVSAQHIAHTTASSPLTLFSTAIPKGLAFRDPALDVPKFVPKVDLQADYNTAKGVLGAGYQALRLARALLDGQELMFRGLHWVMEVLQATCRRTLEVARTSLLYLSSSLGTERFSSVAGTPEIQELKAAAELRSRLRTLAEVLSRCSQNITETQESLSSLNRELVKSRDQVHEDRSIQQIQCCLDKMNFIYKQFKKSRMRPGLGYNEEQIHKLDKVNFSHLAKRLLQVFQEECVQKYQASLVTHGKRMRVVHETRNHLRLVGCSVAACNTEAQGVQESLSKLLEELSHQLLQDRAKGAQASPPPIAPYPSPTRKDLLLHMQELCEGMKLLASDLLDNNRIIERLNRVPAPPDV
Method in brief: as §1

JNK2α2 = target: T7, JNK2α2 (Homo sapiens, UniProt P45984); conditions: read-out: percentage of control activity (POC), JNK2α2
T7 construct: purchased Eurofins Pharma Discovery Services (KinaseProfiler; Cerep BioPrint panel)
Method in brief: as §1

KDR = target: T8, KDR (Homo sapiens, UniProt P35968); conditions: read-out: percentage of control activity (POC), KDR
T8 construct: purchased Eurofins Pharma Discovery Services (KinaseProfiler; Cerep BioPrint panel)
T8 sequence (P35968 20-1356): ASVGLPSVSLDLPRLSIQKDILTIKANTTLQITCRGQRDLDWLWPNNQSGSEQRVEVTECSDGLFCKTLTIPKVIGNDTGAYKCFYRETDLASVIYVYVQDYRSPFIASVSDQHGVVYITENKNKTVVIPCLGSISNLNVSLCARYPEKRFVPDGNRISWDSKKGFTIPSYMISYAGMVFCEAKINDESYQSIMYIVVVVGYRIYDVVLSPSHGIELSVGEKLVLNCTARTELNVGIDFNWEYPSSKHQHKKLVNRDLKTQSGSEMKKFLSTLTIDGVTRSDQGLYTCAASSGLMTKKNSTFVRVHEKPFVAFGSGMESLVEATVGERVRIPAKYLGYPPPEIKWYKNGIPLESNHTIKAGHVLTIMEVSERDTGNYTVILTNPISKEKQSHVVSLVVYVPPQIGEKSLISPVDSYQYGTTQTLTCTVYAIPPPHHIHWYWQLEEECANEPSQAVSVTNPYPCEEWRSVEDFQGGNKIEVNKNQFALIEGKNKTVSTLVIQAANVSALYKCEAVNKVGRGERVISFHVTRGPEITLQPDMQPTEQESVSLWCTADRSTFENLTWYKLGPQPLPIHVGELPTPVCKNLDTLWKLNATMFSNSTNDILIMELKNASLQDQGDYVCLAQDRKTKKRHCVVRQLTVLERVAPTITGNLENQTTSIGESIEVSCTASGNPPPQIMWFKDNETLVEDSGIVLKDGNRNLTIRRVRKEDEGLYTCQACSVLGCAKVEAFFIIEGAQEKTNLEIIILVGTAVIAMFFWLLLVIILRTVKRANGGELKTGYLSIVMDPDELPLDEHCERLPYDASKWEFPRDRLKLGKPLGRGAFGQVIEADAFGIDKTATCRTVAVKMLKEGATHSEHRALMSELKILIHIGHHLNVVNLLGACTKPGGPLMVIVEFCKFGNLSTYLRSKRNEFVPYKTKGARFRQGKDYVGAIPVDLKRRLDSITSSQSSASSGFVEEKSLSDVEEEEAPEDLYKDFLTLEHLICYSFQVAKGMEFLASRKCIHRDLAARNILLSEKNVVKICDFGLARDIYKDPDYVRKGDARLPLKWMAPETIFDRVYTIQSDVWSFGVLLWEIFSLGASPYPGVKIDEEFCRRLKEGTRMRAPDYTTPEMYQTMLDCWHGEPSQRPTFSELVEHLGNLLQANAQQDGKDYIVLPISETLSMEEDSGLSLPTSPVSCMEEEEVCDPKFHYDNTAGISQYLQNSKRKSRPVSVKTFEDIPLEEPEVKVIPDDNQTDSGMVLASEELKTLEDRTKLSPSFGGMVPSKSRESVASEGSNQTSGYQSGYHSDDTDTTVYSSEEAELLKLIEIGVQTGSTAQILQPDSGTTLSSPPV
Method in brief: as §1

LOK = target: T9, LOK (Homo sapiens, UniProt O94804); conditions: read-out: percentage of control activity (POC), LOK
T9 construct: purchased Eurofins Pharma Discovery Services (KinaseProfiler; Cerep BioPrint panel)
Method in brief: as §1

Lck = target: T10, Lck (Homo sapiens, UniProt P06239); conditions: for remaining activity at 10 µM: read-out: percentage of control activity (POC), Lck
T10 construct: Eurofins Pharma Discovery Services (contract assay service)
T10 sequence (P06239 whole entry, species assumed): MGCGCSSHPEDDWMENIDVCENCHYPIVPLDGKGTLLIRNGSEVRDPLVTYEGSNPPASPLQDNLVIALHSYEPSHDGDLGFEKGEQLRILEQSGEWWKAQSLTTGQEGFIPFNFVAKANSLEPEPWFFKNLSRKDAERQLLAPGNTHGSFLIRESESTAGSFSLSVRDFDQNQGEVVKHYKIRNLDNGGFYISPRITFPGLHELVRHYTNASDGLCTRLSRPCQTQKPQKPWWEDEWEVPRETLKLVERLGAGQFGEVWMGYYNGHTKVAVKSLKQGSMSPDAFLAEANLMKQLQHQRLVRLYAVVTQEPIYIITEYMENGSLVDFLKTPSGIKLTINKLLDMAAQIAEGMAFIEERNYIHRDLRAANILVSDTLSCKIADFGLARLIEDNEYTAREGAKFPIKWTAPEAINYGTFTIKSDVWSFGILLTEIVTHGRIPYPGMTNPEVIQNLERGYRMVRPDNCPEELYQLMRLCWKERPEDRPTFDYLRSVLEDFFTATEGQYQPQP
Method in brief: as §1

MAPK2 = target: T11, MAPK2 (Homo sapiens, UniProt P28482); conditions: read-out: percentage of control activity (POC), MAPK2
T11 construct: purchased Eurofins Pharma Discovery Services (KinaseProfiler; Cerep BioPrint panel)
Method in brief: as §1

MINK = target: T12, MINK (Homo sapiens, UniProt Q8N4C8); conditions: read-out: percentage of control activity (POC), MINK
T12 construct: purchased Eurofins Pharma Discovery Services (KinaseProfiler; Cerep BioPrint panel)
Method in brief: as §1

PDK1 = target: T13, PDK1 (Homo sapiens, UniProt O15530); conditions: read-out: percentage of control activity (POC), PDK1
T13 construct: purchased Eurofins Pharma Discovery Services (KinaseProfiler; Cerep BioPrint panel)
T13 sequence (O15530 1-556): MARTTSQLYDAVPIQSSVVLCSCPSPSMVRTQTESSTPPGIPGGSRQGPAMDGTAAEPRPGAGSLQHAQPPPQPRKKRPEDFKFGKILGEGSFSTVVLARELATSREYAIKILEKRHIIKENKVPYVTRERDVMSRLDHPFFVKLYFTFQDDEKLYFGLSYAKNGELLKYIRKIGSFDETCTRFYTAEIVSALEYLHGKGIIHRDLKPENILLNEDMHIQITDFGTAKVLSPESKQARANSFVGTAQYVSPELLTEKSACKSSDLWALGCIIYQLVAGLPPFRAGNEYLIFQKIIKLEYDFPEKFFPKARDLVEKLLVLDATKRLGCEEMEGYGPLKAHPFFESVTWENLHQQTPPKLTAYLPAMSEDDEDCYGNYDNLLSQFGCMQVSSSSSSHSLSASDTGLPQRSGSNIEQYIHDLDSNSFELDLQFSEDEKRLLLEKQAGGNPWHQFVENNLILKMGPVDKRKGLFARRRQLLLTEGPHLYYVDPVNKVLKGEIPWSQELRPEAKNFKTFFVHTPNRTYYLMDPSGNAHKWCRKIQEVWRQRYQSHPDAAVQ
Method in brief: as §1

PKCγ = target: T14, PKCγ (Homo sapiens, UniProt P05129); conditions: read-out: percentage of control activity (POC), PKCγ
T14 construct: purchased Eurofins Pharma Discovery Services (KinaseProfiler; Cerep BioPrint panel)
Method in brief: as §1

Rsk1 = target: T15, Rsk1 (Homo sapiens, UniProt Q15418); conditions: read-out: percentage of control activity (POC), Rsk1
T15 construct: purchased Eurofins Pharma Discovery Services (KinaseProfiler; Cerep BioPrint panel)
T15 sequence (Q15418 whole entry): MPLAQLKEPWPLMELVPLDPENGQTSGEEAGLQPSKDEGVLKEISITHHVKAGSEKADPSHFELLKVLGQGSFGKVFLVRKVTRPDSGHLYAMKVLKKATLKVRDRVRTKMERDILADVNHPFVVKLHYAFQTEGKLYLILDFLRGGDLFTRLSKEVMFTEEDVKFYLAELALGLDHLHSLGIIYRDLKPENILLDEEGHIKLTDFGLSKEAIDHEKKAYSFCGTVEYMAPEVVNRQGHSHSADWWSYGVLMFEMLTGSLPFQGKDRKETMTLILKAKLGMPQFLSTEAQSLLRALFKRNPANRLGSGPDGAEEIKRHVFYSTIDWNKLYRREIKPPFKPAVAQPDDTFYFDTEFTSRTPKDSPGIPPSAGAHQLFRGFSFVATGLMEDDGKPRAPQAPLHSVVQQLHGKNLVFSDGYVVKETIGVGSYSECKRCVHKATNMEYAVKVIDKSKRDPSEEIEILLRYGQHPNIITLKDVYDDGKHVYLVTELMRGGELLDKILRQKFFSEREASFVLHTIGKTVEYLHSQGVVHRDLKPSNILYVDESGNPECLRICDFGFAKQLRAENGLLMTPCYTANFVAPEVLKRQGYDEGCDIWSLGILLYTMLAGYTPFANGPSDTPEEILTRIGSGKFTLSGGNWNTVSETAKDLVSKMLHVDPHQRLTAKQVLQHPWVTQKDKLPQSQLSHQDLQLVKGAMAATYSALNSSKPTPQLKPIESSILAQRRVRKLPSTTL
Method in brief: as §1

Rsk2 = target: T16, Rsk2 (Homo sapiens, UniProt P51812); conditions: read-out: percentage of control activity (POC), Rsk2
T16 construct: purchased Eurofins Pharma Discovery Services (KinaseProfiler; Cerep BioPrint panel)
Method in brief: as §1

Rsk3 = target: T17, Rsk3 (Homo sapiens, UniProt Q15349); conditions: read-out: percentage of control activity (POC), Rsk3
T17 construct: purchased Eurofins Pharma Discovery Services (KinaseProfiler; Cerep BioPrint panel)
Method in brief: as §1

TrkB = target: T18, TrkB (Homo sapiens, UniProt Q16620); conditions: for remaining activity at 10 µM: read-out: percentage of control activity (POC), TrkB
T18 construct: purchased Eurofins Pharma Discovery Services (KinaseProfiler; Cerep BioPrint panel)
T18 sequence (Q16620 32-822): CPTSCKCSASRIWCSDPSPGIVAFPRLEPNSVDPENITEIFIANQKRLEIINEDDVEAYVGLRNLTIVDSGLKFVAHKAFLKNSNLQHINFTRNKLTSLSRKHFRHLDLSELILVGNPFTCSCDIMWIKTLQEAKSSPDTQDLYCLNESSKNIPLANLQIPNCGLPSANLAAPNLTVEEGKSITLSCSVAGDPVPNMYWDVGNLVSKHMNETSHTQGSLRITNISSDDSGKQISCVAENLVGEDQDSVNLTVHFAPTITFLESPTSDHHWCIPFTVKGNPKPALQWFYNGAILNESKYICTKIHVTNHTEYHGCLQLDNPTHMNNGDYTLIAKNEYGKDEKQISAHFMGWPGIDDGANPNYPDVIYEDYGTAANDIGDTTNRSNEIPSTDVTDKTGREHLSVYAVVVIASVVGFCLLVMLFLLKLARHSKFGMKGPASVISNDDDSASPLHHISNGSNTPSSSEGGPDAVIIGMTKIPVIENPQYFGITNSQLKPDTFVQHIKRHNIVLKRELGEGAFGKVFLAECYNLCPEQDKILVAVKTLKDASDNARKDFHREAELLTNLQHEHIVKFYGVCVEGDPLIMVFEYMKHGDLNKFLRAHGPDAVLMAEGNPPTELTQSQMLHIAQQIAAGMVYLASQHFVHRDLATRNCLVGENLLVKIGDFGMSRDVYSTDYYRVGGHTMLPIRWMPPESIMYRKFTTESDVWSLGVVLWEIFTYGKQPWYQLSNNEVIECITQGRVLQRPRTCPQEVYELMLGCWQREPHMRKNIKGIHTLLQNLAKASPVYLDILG
Method in brief: as §1

c-RAF = target: T19, c-RAF (Homo sapiens, UniProt P04049); conditions: read-out: percentage of control activity (POC), c-RAF
T19 construct: purchased Eurofins Pharma Discovery Services (KinaseProfiler; Cerep BioPrint panel)
T19 sequence (P04049 whole entry): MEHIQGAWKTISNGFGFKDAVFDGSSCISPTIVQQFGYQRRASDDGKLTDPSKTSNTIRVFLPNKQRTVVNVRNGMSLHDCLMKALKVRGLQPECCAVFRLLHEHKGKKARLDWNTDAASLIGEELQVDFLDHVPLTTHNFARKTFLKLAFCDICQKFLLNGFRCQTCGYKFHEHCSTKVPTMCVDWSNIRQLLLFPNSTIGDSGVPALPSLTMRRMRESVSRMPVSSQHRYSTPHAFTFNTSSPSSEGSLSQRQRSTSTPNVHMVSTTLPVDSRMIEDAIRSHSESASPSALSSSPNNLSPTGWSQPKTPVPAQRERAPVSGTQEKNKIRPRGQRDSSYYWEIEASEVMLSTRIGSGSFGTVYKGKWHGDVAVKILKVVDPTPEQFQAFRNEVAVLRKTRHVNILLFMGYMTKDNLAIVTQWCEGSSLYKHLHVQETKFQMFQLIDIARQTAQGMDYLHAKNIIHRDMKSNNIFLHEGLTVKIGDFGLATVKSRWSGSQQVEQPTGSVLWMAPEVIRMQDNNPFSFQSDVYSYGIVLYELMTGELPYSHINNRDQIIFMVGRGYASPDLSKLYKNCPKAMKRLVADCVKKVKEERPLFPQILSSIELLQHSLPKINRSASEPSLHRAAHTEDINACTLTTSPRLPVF
Method in brief: as §1

| Compound | remaining activity at 10 µM (CDK1/cyclinB) [%] | remaining activity at 10 µM (CSK) [%] | remaining activity at 10 µM (Fer) [%] | remaining activity at 10 µM (Flt1) [%] | remaining activity at 10 µM (GSK3α) [%] | remaining activity at 10 µM (IKKε) [%] | remaining activity at 10 µM (JNK2α2) [%] | remaining activity at 10 µM (KDR) [%] | remaining activity at 10 µM (LOK) [%] | remaining activity at 10 µM (Lck; 10 μM) [%] | remaining activity at 10 µM (MAPK2) [%] | remaining activity at 10 µM (MINK) [%] | remaining activity at 10 µM (PDK1) [%] | remaining activity at 10 µM (PKCγ) [%] | remaining activity at 10 µM (Rsk1) [%] | remaining activity at 10 µM (Rsk2) [%] | remaining activity at 10 µM (Rsk3) [%] | remaining activity at 10 µM (TrkB) [%] | remaining activity at 10 µM (c-RAF) [%] | further results |
| --- | --- | --- | --- | --- | --- | --- | --- | --- | --- | --- | --- | --- | --- | --- | --- | --- | --- | --- | --- | --- |
| CC(C)(C)N1CCC(c2cc(-c3ccc(F)cc3Cl)c3cc[n+]([O-])c(-c4c(Cl)cccc4Cl)c3n2)CC1 [compound 2] | 100 | 95 | 109 | 114 | 107 | 101 | 101 | 92 | 107 | 98 | 105 | 104 | 121 | 117 | 104 | 101 | 99 | 25 | 112 | inhibition at 10 µM (TrkB): 75% |
| Cc1ccc(C(=O)NCC2CC2)cc1-c1ccc2c(c1)NC(=O)C21CCCC1 [compound 3] | 96 | 107 | 102 | 128 | 95 | 102 | 94 | 93 | 112 | 102 | 97 | 93 | 98 | 104 | 100 | 103 | 102 | 96 | 54 | – |
| Cn1cc(-c2cccc(-c3nc(C(=O)NC4C5CC6CC4CC(O)(C6)C5)c(N)nc3N)c2)cn1 (centres unmarked) [compound 4] | 64 | 94 | 99 | 84 | 76 | 96 | 98 | 72 | 109 | 44 | 97 | 94 | 118 | 96 | 87 | 88 | 75 | 57 | 52 | inhibition at 10 µM (Lck; 10 μM): 56%; IC50 (Lck; biochemical dose response, duplicate, read-out: Inhibition of indicated activity (IC50, μM): Lck): 3.33 µM |
| CS(=O)(=O)N1CCN(c2ccc(Nc3ncc(C(N)=O)c(NC4CC4)n3)cc2)CC1 [compound 5] | 71 | 74 | 14 | -3 | 40 | 0 | 8 | 6 | 14 | 4 | 49 | 14 | 7 | 4 | 1 | -2 | 0 | 3 | 10 | – |
| COc1c(NC(=O)c2ccc(C)c(-c3nnc4c(NCC(C)(C)C)nccn34)c2)cc(C(C)(C)C)cc1NS(C)(=O)=O [compound 7, reference compound] | 101 | 88 | 105 | 80 | 103 | 100 | 91 | 82 | 135 | 81 | 99 | 110 | 121 | 105 | 132 | 112 | 110 | 84 | 61 | – |
